Reference: US10590114B2, “Compounds, compositions, and methods” (Denali Therapeutics Inc., priority 2016, dated 2020)

Key:
[1] = target: MDR1 (P-glycoprotein) (Homo sapiens (Human), UniProt P08183); experiment: MDR1-MDCK permeability, bidirectional assay; format: in vitro ADME; settings: MDR1-MDCK cells, efflux ratio, 1 μM, HBSS pH 7.4
Protocol: The blood brain barrier (BBB) separates circulating blood from the extracellular fluid of the central nervous system (CNS). The passive membrane permeability (Papp) and MDR1 (P-glycoprotein) substrate efflux potential were determined using the MDR1-MDCK cell line as an in vitro model of the effective permeability of a compound through the BBB. A bidirectional assay was conducted in pre-plated MDR1-MDCK cells using a 12 or 96-well plate in the absence or presence of MDR1 inhibitor (GF120918 or Valspodar). Assays were run in duplicate in transport buffer (HBSS, pH 7.4) for 90 or 120 min (minutes) at 37° C., using a test article concentration of 1 μM. […] Papp (apparent permeability expressed in cm/sec [centimeter/second]) values were calculated according to the following equation:
[formula] where VR is the solution volume in the receiver chamber (apical or basolateral side), Area is the surface area for the insert membrane), Time is incubation time expressed in seconds, CR is the peak area ratio (analyte/IS) in the receiver chamber, CA is the average of the initial and final concentrations in the donor chamber, and CO is the initial peak area ratio in the donor chamber. Papp was determined in both the apical to basolateral (A→B) and basolateral to apical (B→A) directions. […]

[2] = Metabolic stability in human liver microsomes; format: in vitro ADME; settings: Table 5; 1 μM compound, 0.5 mg/mL protein, projected human hepatic clearance, well-stirred model
Protocol: Metabolic stability of compounds was evaluated in human liver microsomes (from Corning or XenoTech, LLC) using a 96-well plate assay format. Compounds were incubated at 37° C. at 1 μM final concentration in the microsomal matrix (0.5 mg/mL total protein) in the presence or absence of NADPH cofactor. An NADPH regenerating system, comprised of NADP, MgCl2, isocitric acid, and isocitrate dehydrogenase, was used in the assay. Enzymatic reactions were conducted for 0, 5, 10, 20, 30, or 60 min before termination by addition of acetonitrile containing tolbutamide and labetalol internal standards (100 ng/mL). After shaking for 10 min, plates were subjected to centrifugation (4000 rpm at 4° C.) for 20 min and supernatants were mixed 1:3 with HPLC grade water. Samples were analyzed by LC-MS/MS using appropriate MRM transitions for each analyte and internal standard (IS). Analyte/IS peak area ratios were used to determine percent compound remaining at each time point. Intrinsic clearance (Clint; expressed as mL·min^−1·mg^−1) was calculated from the first order elimination constant (k, min^−1) of test article decay and the volume of the incubation. These values were scaled to intrinsic organ clearance (Clint) using human specific scaling factors (48.8 mg microsomal protein per g liver; 25.7 g liver per kg body weight). […]

Chain of MDR1 (P-glycoprotein) (P08183 whole entry): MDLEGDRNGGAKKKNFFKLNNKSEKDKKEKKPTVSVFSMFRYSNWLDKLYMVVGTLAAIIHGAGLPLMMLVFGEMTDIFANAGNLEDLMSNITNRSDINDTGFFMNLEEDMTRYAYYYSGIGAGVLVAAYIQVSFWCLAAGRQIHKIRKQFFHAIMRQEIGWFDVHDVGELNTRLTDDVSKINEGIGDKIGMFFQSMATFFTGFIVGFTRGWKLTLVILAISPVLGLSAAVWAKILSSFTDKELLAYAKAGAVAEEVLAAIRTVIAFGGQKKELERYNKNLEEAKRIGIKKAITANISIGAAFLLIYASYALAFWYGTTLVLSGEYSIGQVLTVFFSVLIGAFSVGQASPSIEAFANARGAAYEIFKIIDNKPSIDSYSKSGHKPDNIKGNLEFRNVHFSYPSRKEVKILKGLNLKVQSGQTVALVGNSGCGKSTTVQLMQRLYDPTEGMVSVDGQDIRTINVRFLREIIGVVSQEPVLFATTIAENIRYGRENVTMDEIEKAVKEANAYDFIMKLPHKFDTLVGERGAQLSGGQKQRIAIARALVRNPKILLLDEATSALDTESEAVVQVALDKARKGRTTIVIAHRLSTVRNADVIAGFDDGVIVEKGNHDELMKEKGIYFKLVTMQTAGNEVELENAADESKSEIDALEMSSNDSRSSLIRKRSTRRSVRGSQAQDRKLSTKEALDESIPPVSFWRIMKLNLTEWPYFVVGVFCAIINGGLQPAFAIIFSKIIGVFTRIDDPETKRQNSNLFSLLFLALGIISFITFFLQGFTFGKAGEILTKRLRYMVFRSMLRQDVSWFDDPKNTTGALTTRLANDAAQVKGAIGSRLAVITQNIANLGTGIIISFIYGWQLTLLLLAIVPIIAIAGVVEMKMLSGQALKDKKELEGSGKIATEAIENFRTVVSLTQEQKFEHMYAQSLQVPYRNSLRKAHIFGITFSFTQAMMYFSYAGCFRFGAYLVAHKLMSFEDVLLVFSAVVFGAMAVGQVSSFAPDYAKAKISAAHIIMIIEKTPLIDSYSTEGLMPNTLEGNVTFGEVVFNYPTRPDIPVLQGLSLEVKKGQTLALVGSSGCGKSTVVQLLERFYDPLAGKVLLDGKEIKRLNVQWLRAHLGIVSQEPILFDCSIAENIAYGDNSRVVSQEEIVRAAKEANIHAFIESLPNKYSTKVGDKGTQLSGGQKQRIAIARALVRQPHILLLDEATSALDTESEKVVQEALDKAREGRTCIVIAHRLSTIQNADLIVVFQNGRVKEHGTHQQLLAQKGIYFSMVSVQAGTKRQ

MDR1 ER [1] | Human liver microsomes CLhep [2] [mL/min/kg] | Structure (SMILES)
42 | – | CCNc1nc(Nc2cc(C3(C)CCn4ncnc43)nn2C2CC2)ncc1C(F)(F)F (single isomer, unassigned) [Compound 172]
– | 0 | CNc1nc(Nc2cn(C(C)(C)c3ncn(C)n3)nc2C)ncc1C(F)(F)F [Compound 218]
